In the NIST ThermoML archive (doi:10.1021/je700339f):

Assay: xn = mol fraction of the nth substance listed
Settings: 298.15 K, Liquid

ClCCCl [1,2-dichloroethane] + CN(C)C=O
mass density [kg/m3]
Settings	x2 = 0.0805	x2 = 0.1978	x2 = 0.302	x2 = 0.397	x2 = 0.4988	x2 = 0.6023	x2 = 0.7054	x2 = 0.8005	x2 = 0.9071
100 kPa	1221.2	1186.2	1154.9	1126.5	1095.7	1064.5	1033.6	1005.2	972.8
500 kPa	1221.5	1186.6	1155.2	1126.8	1096	1064.8	1033.9	1005.5	973.1
1000 kPa	1222	1187	1155.7	1127.2	1096.4	1062.2	1034.3	1005.8	973.3
1500 kPa	1222.5	1187.5	1156.2	1127.6	1096.8	1065.6	1034.7	1006.2	973.7
2000 kPa	1223	1188	1156.6	1128	1097.2	1065.9	1035	1006.5	974
2500 kPa	1223.4	1188.4	1156.9	1128.4	1097.6	1066.4	1035.4	1006.9	974.3
3000 kPa	1223.9	1188.8	1157.4	1128.8	1098	1066.7	1035.7	1007.2	974.6
3500 kPa	1224.3	1189.3	1157.8	1129.3	1098.3	1067	1036.1	1007.6	974.9
4000 kPa	1224.8	1189.7	1158.2	1129.6	1098.7	1067.4	1036.4	1007.9	975.2
4500 kPa	1225.3	1190.1	1158.6	1130.1	1099.2	1067.8	1036.7	1008.2	975.5
5000 kPa	1225.8	1190.6	1159.1	1130.4	1099.5	1068.2	1037.1	1008.5	975.9
5500 kPa	1226.3	1191	1159.5	1130.9	1099.8	1068.5	1037.4	1008.9	976.2
6000 kPa	1226.7	1191.5	1159.9	1131.4	1100.2	1068.8	1037.7	1009.2	976.5
6500 kPa	1227.1	1191.9	1160.3	1131.6	1100.6	1069.3	1038.1	1009.5	976.8
7000 kPa	1227.6	1192.3	1160.8	1132.1	1101	1069.6	1038.5	1009.8	977.1
7500 kPa	1228	1192.7	1161.2	1132.5	1101.4	1070	1038.8	1010.2	977.4
8000 kPa	1228.5	1193.2	1161.6	1132.8	1101.8	1070.3	1039.2	1010.5	977.8
8500 kPa	1228.9	1193.7	1161.9	1133.2	1102.1	1070.7	1039.5	1010.8	978.2
9000 kPa	1229.3	1194	1162.4	1133.7	1102.5	1071.1	1039.9	1011.2	978.4
9500 kPa	1229.8	1194.5	1162.8	1134	1102.9	1071.4	1040.2	1011.5	978.7
9900 kPa	–	–	–	–	–	–	–	1011.8	–
10000 kPa	1230.4	1195	1163.2	1134.5	1103.3	1071.8	1040.6	–	979.1
10500 kPa	1230.8	1195.4	1163.6	1134.9	1103.7	1072.2	1040.9	1012.2	979.4
11000 kPa	1231.2	1195.8	1164.1	1135.3	1104	1072.5	1041.2	1012.4	979.7
11400 kPa	–	–	1164.4	–	–	–	–	–	–
11500 kPa	1231.7	1196.2	–	1135.7	1104.4	1072.9	1041.6	1012.8	980
11900 kPa	–	–	–	1136	–	–	1041.9	–	–
12000 kPa	1232.2	1196.7	1164.9	–	1104.8	1073.2	–	1013.2	980.3
12400 kPa	–	–	1165.2	–	–	–	1042.2	–	980.5
12500 kPa	1232.6	1197.1	–	1136.5	1105.2	1073.5	–	1013.5	–
12900 kPa	–	–	–	1136.8	–	–	–	–	–
13000 kPa	1233.1	1197.4	1165.6	–	1105.6	1073.9	1042.6	1013.8	980.9
13400 kPa	1233.4	–	–	–	–	–	–	–	–
13500 kPa	–	1197.9	1166	1137.3	1105.9	1074.2	1042.9	1014.1	981.2
13900 kPa	–	–	–	–	–	1074.6	–	–	–
14000 kPa	1233.9	1198.3	1166.4	1137.6	1106.2	–	1043.2	1014.4	981.5
14500 kPa	1234.3	1198.8	1166.8	1137.9	1106.6	1074.9	1043.5	1014.7	981.8
14900 kPa	–	–	–	1138.2	–	–	1043.8	–	–
15000 kPa	1234.7	1199.1	1167.2	–	1107	1075.2	–	1015	982.1
15400 kPa	–	–	–	–	–	–	–	–	982.3
15500 kPa	1235.2	1199.6	1167.6	1138.7	1107.3	1075.6	1044.2	1015.3	–
15900 kPa	–	1199.9	–	–	–	–	–	–	–
16000 kPa	1235.6	–	1168	1139	1107.7	1075.9	1044.5	1015.7	982.6
16400 kPa	–	1200.3	–	–	–	–	–	1015.9	–
16500 kPa	1236	–	1168.4	1139.4	1108	1076.2	1044.8	–	983
16900 kPa	–	–	–	1139.7	–	–	–	–	–
17000 kPa	1236.4	1200.7	1168.7	–	1108.4	1076.6	1045.1	1016.3	983.2
17500 kPa	1236.8	1201.1	1169.1	1140.1	1108.7	1076.9	1045.4	1016.6	983.5
17900 kPa	–	–	–	–	–	–	–	1016.9	–
18000 kPa	1237.2	1201.5	1169.5	1140.5	1109	1077.3	1045.7	–	983.8
18400 kPa	–	–	–	–	–	1077.6	–	–	–
18500 kPa	1237.7	1201.9	1169.9	1140.8	1109.4	–	1046.1	1017.2	984.1
19000 kPa	1238.2	1202.4	1170.2	1141.2	1109.9	1078	1046.4	1017.5	984.4
19500 kPa	1238.6	1202.7	1170.6	1141.6	1110.2	1078.3	1046.7	1017.8	984.7
20000 kPa	1239	1203.1	1171.1	1142.1	1110.6	1078.6	1047.08	1018.2	985.1
